# Experimental data reported in BindingDB's records for doi:10.1021/jm00159a013 (1986).
# Target: Prostacyclin synthase (Sus scrofa)
# Assay: Inhibition of porcine aorta prostacyclin PGI-2 synthetase
row,SMILES,IC50
1,Cc1c(Cn2ccnc2)sc2cc(C(=O)O)ccc12 [2-Imidazol-1-ylmethyl-3-methyl-benzo[b]thiophene-6-carboxylic acid],> 100 µM
2,Cc1c(Cn2ccnc2)oc2ccc(C(=O)O)cc12 [2-Imidazol-1-ylmethyl-3-methyl-benzofuran-5-carboxylic acid],> 100 µM
3,Cc1c(Cn2ccnc2)sc2ccc(C(=O)O)cc12 [2-Imidazol-1-ylmethyl-3-methyl-benzo[b]thiophene-5-carboxylic acid],> 100 µM

# Other lines, results leading:
row,IC50,SMILES
1,> 100 µM,O=C(O)c1ccc2c(Cl)c(Cn3ccnc3)sc2c1 [3-Chloro-2-imidazol-1-ylmethyl-benzo[b]thiophene-6-carboxylic acid]
2,> 100 µM,O=C(O)c1ccc2sc(Cn3ccnc3)cc2c1 [2-Imidazol-1-ylmethyl-benzo[b]thiophene-5-carboxylic acid]
3,> 100 µM,O=C(O)c1ccc2oc(Cn3ccnc3)c(Cl)c2c1 [3-Chloro-2-imidazol-1-ylmethyl-benzofuran-5-carboxylic acid]
